Consider 1 compound from patent publication US20200048611A1, “ENGINEERED PLATFORM FOR CONNECTED MICROPATTERNED CARDIAC TISSUES” (Wisconsin Alumni Research Foundation, priority 2018, published 2020).

In the test the test system is patterned hPSC-CMs. Briefly: beta-adrenergic stimulation of micropatterned hPSC-CMs with isoproterenol (contraction, digital image correlation). The test is classed as cell-based, human. The note with it: patterned CMs on 10 kPa PDMS, 1 μM isoproterenol. An excerpt: In this Example, cardiomyocytes were differentiated from the 19-9-11 iPSC line and purified using lactate media. 10 kPa PDMS substrates mimicking the elasticity of the healthy myocardium were made by blending together commercially available Sylgard 184 and 527. […] Statistical analyses were done using one-way ANOVA with post hoc Tukey test.

For the compound `CC(C)NCC(O)c1ccc(O)c(O)c1` (centres unmarked) [isoproterenol], the rate of contraction result is given as “increase in the rate of contraction”. Where the note is “versus baseline normal contraction”, the “amplitude of contraction (x-displacement)” value is reported as “amplitude of contraction also increased from baseline”.
